Test results reported in ChEMBL document CHEMBL1201862, “PubChem BioAssay data set” (2004).
Activity calls are given as the source filed them. For most assays here, no stated cut-off is given here; in the data, actives have a measured EC50 and inactives only a lower limit.

Key:
[1] = target: T1, Corticotropin-releasing factor receptor 2/Corticotropin-releasing factor-binding protein (Homo sapiens, UniProt P24387+Q13324); assay: Dose Response confirmation of uHTS hits for small molecule antagonists of the CRF-binding protein and CRF-R2 receptor complex.; type: functional; conditions: read-out: IC50_Mean
T1 sequence (Q13324 whole entry): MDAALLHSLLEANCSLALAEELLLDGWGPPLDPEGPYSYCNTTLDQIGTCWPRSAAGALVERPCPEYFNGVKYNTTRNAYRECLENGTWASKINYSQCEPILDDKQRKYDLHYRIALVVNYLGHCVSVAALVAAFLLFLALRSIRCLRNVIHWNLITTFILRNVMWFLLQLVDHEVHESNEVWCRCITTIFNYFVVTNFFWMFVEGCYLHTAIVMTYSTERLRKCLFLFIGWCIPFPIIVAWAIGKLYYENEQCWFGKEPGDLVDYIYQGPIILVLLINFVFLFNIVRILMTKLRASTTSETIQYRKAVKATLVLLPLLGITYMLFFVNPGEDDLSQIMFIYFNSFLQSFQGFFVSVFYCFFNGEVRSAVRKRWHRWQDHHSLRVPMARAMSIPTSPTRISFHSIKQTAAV
T1 sequence (P24387 whole entry): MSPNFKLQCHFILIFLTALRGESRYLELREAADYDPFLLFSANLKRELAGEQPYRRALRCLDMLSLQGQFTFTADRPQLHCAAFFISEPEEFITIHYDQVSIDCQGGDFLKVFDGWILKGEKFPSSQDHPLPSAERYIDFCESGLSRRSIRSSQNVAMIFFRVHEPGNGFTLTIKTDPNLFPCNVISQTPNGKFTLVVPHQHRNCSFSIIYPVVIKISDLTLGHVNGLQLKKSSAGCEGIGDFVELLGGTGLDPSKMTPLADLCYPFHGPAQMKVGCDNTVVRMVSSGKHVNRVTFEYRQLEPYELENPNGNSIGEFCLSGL

[2] = target: T1, Corticotropin-releasing factor receptor 2/Corticotropin-releasing factor-binding protein; assay: activators of CRF receptor 2 with binding protein – uHTS hits, confirmation (AID 602473); type: functional; conditions: read-out: EC50_Mean
[3] = C. albicans growth with fluconazole, confirmation, fluorescence, retest (AID 2467); type: functional, cell-based
[4] = cytotoxicity toward NIH3T3 fibroblasts, dose response, counter-screen, cell-based, ATP luminescence, mouse fibroblasts (AID 2010); type: functional;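 further: cells exposed to compound for about 90 hours before reading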
[5] = inhibitors of intracellular T. cruzi replication, confirmation, NIH3T3 host cells, beta-gal luminescence (AID 2044); type: functional, cell-based;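 further: intracellular parasites grown in NIH/3T3 mouse fibroblasts as host cells; luminescent beta-galactosidase reporter signal from transgenic T. cruzi replicating inside host cells; inhibitors lower the luminescence signal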
[6] = NIH-3T3 fibroblast cytotoxicity, dose response, cytotoxicity control, cell-based, fluorescence, Alamar Blue, secondary assay (AID 2327); type: functional;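 further: NIH-3T3 mouse fibroblasts cultured with fluconazole at 8 µg/mL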
H4 = assay: Luminescence Cell-Based Dose Response HTS to Identify Activators of 5'UTR Stem-Loop Driven Prion Protein mRNA Translation in H4 Neuroglioblastoma Cells. [Related pubchem assays: 1829 (Project Summary), 1814 (Primary HTS)]; type: functional; conditions: Homo sapiens
[7] = Luminescence Cell-Based Dose Retest to Confirm Inhibitors of Cancer Stem Cells. [Related pubchem assays (depositor defined):AID2717, AID2721]; type: functional; conditions: Homo sapiens
INS1 = assay: beta cell apoptosis inhibitors, cytokine rescue, dose response, luminescence, retest (AID 449756); type: functional, cell-based; conditions: Rattus norvegicus;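 further: cell death triggered by IL-1 beta plus TNF-alpha plus IFN-gamma mixture; protective hits raise ATP signal compared with cytokine alone wells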
Streptococcus = assay: Group A Streptococcus viability loss, dose response, counter-screen for streptokinase expression inhibitor project, luminescence, BacTiterGlo (AID 1915); type: functional, organism-based;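 further: potency for reduction of bacterial viability or growth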
[8] = tested on: Streptococcus sp. 'group A'; assay: growth inhibition of control SK(-) GAS strain, dose response, counter-screen for streptokinase expression inhibitor project, luminescence, kanamycin, BacTiterGlo, confirmation (AID 1900); type: functional, organism-based
[9] = P. falciparum Dd2 growth inhibitors, dose response, SYBR Green, cherry-picked samples (AID 1159567); type: functional, cell-based

Row | Compound | IC50 [1] | EC50 [2] | AC50 [9] | also measured
1 | CCOc1ccc(C(CCc2ccccc2)NC(=O)c2ccccc2OC)cc1OCC (stereo unspecified) | > 47.1 µM (inactive) | > 53 µM (inactive) | – | –
2 | O=C(NNC(=O)c1ccccc1C(=O)O)c1ccc(O)cc1 | > 47.1 µM (inactive) | > 53 µM (inactive) | – | –
3 | CS(=O)(=O)Oc1ccc(Br)c2cccnc12 | > 47.1 µM (inactive) | > 53 µM (inactive) | – | –
4 | Cc1c(C(=O)O)sc(S(=O)(=O)N2CCN(C(=O)Cc3ccc(F)cc3)CC2)c1C(=O)O | > 47.1 µM (inactive) | > 53 µM (inactive) | – | –
5 | c1ccc(COc2ccccc2CNC23CC4CC(CC(C4)C2)C3)cc1 | – | – | – | EC50 [3]: > 38 µM (not active); EC50 [4]: > 60 µM (not active); EC50 [5]: 2.36 µM (active); EC50 [6]: > 160 µM (inactive)
6 | COc1ccc(/C=C2\CCn3c2nc2ccccc2c3=O)cc1OC | – | – | – | EC50 (H4): 1.08 µM (active)
7 | Cc1ccc(S(=O)(=O)c2nc(S(C)(=O)=O)sc2N2CCOCC2)cc1 | > 47.1 µM (inactive) | > 53 µM (inactive) | – | –
8 | O=C(CCCOc1ccc(Cl)cc1)Nc1cccc(C(=O)O)c1 | > 47.1 µM (inactive) | > 53 µM (inactive) | – | –
9 | Cc1noc(C)c1S(=O)(=O)N1CCC(C(=O)N2CCN(c3ccc(Cl)cc3)CC2)CC1 | > 47.1 µM (inactive) | > 53 µM (inactive) | – | –
10 | CCCc1ccc(C(=O)NNc2ccc(F)cc2)cc1 | – | – | – | EC50 [3]: > 38 µM (not active); AC50 [7]: 1.03 µM (active); EC50 [6]: 13 µM (inconclusive)
11 | O=C1N=C(N2CCOCC2)S/C1=C1\C(=O)N(Cc2ccccc2)c2ccccc21 | – | – | – | EC50 (H4): 45 µM (inconclusive)
12 | CC(C)NC1=NN=C(c2ccc(Cl)c(Cl)c2)CS1 | – | – | – | EC50 (H4): 0.597 µM (active)
13 | COc1ccc(C#Cc2c(-c3ccccc3)n(-c3ccccc3)c3ccc(CO)cc23)cc1 | > 47.1 µM (inactive) | > 53 µM (inactive) | – | –
14 | CCN1C(=O)CC2CCCC1C2 (stereo unspecified) | > 47.1 µM (inactive) | > 53 µM (inactive) | – | –
15 | COc1cc(OC)c2cc(C(=O)N/N=C/c3ccccc3O)[nH]c2c1 | – | – | – | EC50 [3]: 1.47 µM (active); AC50 (INS1): 3.06 µM (active); EC50 (Streptococcus): 7.68 µM (active); EC50 [8]: 0.781 µM (active); EC50 [6]: 23.1 µM (active)
16 | CO[C@H]1CN(C)C(=O)c2cc(NC(=O)c3nc4ccccc4s3)ccc2OC[C@@H](C)NC[C@@H]1C | – | – | 7.49 µM (active) | –
17 | COc1cccc(C#Cc2ccc([C@H]3[C@@H](C#N)N(C(=O)C4CCCC4)[C@@H]3CO)cc2)c1 | – | – | 5.62 µM (active) | –
18 | COc1cccc(-c2ccc3c(c2)[C@H]2[C@H](CCN2C(=O)C2CCCC2)[C@@H](CO)N3)c1 | – | – | 6.77 µM (active) | –
19 | CCC(=O)N1CC2(C1)[C@@H](c1ccc(-c3cccc(OC)c3)cc1)[C@@H](CO)N2C(C)=O | – | – | 22.2 µM (active) | –
20 | COc1ccc(S(=O)(=O)N(C)C[C@@H]2OCc3ccccc3-c3c(n(C)c4ccccc34)C(=O)N([C@H](C)CO)C[C@H]2C)cc1 | – | – | 4.65 µM (active) | –
21 | Cc1ccc(-c2ccc3c(c2)O[C@@H](CN(C)Cc2cccnc2)[C@@H](C)CN([C@@H](C)CO)S3(=O)=O)cc1 | – | – | 5.62 µM (active) | –
22 | Cc1ccc(-c2ccc([C@H]3[C@@H]4CN(S(=O)(=O)c5ccccc5)C[C@H]3N4)cc2)cc1 | – | – | 3.66 µM (active) | –
23 | COc1cccc(NC(=O)Nc2ccc3c(c2)C(=O)N(C)C[C@@H](OC)[C@H](C)CN[C@@H](C)CO3)c1 | – | – | 22.8 µM (active) | –
